Laboratory results from US8367659B2, “Oxazinyl isoflavonoid compounds, medicaments and use” (Marshall Edwards, Inc., priority 2007, dated 2013).

Legend:
[1] = tested on: E-selectin; assay: TNFα-induced E-selectin expression in human arterial endothelial cells (ELISA); type: cell-based
Protocol: (§1) Inhibition of TNFα-stimulated endothelial cell activation by compounds was assessed by measuring surface expression of cell adhesion molecules with an ELISA method. Human arterial endothelial cells (HAEC) in growth medium (Cell Applications Inc.) were seeded into 96-well plates at a density of 10,000 cells per well. Plates were incubated overnight at 37° C. in a humidified incubator to allow for cells to become confluent. On the morning of the experiment, TNFα (10 μl, 2 ng/ml) was added to each well, which contained 100 μl of medium. Compounds were diluted in DMSO-containing medium (2.5% DMSO) to give a compound concentration of 100 and 300 μM. Compounds were added to wells so that final concentrations were 10 and 30 μM. DMSO-containing medium alone was added to zero concentration control wells. All samples were measured in quadruplicate (4 wells per treatment).
(§2) After incubation with compound, medium was removed and cells were probed with either non-specific IgG or specific mouse antibodies against E-selectin, ICAM or VCAM (BD Biosciences—0.1 μg in 100 μL buffered saline with 10% heat-inactivated human serum). Adhesion molecule expression was detected by addition of sheep anti-mouse antibody/horseradish peroxidase conjugate. […] Optical density was measured at 405 nm with an ELISA reader (Titertek Multiscan, Flow Laboratories). […]

[2] = tested on: AA-induced ear oedema; assay: Arachidonic acid (AA)-induced ear swelling in mice; type: in vivo, BALB/c mice; conditions: 25 mg/kg i/p; 1 h post-AA application
Protocol: Groups of 5-6 female BALB/c mice (ARC, WA, Australia), weighing 15-21 g were injected intraperitoneally (i/p) with test compound at 25 mg/kg delivered in polyethylene glycol (PEG) 400: phosphate buffered saline (PBS) 1:1 or ethanol: propanediol: PBS 4:9:7 either 30 min prior to or immediately before the inflammogen was applied to the ears. Mice were anaesthetised using isoflurane and baseline thickness of both ears was measured using a spring micrometer. Each mouse received a total of 20 μL of either AA in ethanol (50 mg/ml or 200 mg/ml) or PMA in either ethanol or acetone (0.2 mg/ml) applied to the inner and outer surfaces of each pinna (i.e. 0.5 mg or 2 mg AA or 2 μg PMA per ear). Mice were anaesthetised again to re-measure the ears at 1 h post-AA application and 5 h after PMA. The difference in ear swelling pre- and post-application of inflammogen for each ear was calculated, and the average for the two ears of each mouse taken. The difference in mean swelling of each test group compared to the group given vehicle alone was calculated using a general ANOVA using Dunnett's Multiple Comparison test when multiple compounds were tested in the one experiment or a two-tailed […] t-test when only one compound was tested (Prism 4, Graphpad Software). The data has been presented graphically as the mean percentage inhibition of oedema, calculated as: […]. Results

[3] = tested on: ICAM-1; assay: TNFα-induced ICAM-1 expression in human arterial endothelial cells (ELISA); type: cell-based
Protocol: as §1, §2

[4] = tested on: CP70; assay: Anti-cancer activity, CP70 ovarian cancer cells (MTT); type: cell-based; conditions: 120 h, 5 days
[5] = tested on: TNFα synthesis in human peripheral blood monocytes; assay: Synthesis of TNFα by human monocytes stimulated with LPS; type: cell-based; conditions: FIGS. 1a, 1b
Protocol: Human peripheral blood monocytes were isolated from buffy coats by lyrnpboprep gradient separation of mononuclear cells followed by counter-current centrifugal elutriation (Demasi et al. 2000). Test compounds were dissolved in DMSO and added to fresh monocytes to achieve concentrations of 0, 10 and 100 μM. After 30 min, LPS was added to achieve a final concentration of 200 ng/mL. After 1 h, supernatants were removed and TNFα measured by ELISA previously described (Demasi et al. 2003). ANOVA followed by Newman-Keuls multiple comparisons test was used to examine differences between doses and the control values.

[6] = target: T1, GAL4-PPARγ fusion protein (Homo sapiens, UniProt P37231); assay: PPARγ activity in transfected HEK293 cells (beta-lactamase reporter); type: cell-based; conditions: FIG. 13: 1 μM
T1 construct: host or cells: HEK293 (human embryonic kidney), stably transfected
T1 sequence (P37231 238-503 limits assumed): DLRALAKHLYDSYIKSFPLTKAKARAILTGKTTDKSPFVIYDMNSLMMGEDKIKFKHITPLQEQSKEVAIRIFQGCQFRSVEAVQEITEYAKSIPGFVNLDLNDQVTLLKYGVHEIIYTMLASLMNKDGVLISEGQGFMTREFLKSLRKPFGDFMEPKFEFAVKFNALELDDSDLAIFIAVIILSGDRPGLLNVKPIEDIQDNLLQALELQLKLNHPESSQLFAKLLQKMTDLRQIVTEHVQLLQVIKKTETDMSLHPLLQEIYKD
T1 sequence (P04386 1-147 partner limits assumed): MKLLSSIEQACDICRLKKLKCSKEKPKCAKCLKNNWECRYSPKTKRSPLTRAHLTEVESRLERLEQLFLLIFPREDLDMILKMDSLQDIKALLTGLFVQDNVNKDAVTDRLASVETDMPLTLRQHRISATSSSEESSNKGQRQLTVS
Summary of the method: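 HEK293 cells stably expressing GAL4-DBD/PPARγ-LBD fusion with beta-lactamase reporter, treated with compound at 1, 5 and 10 μM for 16-18 h. Beta-lactamase read via FRET substrate (2 h, room temperature), ex 409 nm, em 460/530 nm; background-subtracted emission ratio.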

[7] = TNFα-stimulated HAEC, 4 hrs, FIG. 18
[8] = HAEC, 10 μM found most appropriate for comparing

Structure (SMILES) | inhibition of E-selectin expression [1, 7] | % Change compared with vehicle [2] | Change in ear thickness (mean ± SD, × 0.01 mm) [2] | inhibition of ICAM expression [3, 7] | IC50 [4] | effect on synthesis of TNFα [5] | PPARγ activation, increase in beta-lactamase activity over media only control [6] | effect on TNFα-induced E-selectin expression [1, 8] | effect on TNFα-induced ICAM-1 expression [3, 8]
Oc1ccc(C2=Cc3cc4c(cc3OC2)OCN(Cc2ccccc2)C4)cc1 [Compound 1, 4-(3-Benzyl-2,3,4,8-tetrahydrochromeno[6,7-e][1,3]oxazin-7-yl)phenol] | > 50% | −18% | 20 ± 0.9 × 0.01 mm | 10-50% | 5.51 ± 2.6 µM | – | – | – | –
CC(c1ccccc1)N1COc2cc3c(cc2C1)C=C(c1ccc(O)cc1)CO3 (stereo not drawn) [Compound 2, 4-(3-(1-Phenylethyl)-2,3,4,8-tetrahydrochromeno[6,7-e][1,3]oxazin-7-yl)phenol] | – | −39% | 15.9 ± 4.2 × 0.01 mm | – | 8.1 ± 3 µM | reduce the synthesis of TNFα | PPARγ agonist activity | – | –
Oc1cccc(C2=Cc3ccc(O)cc3OC2)c1 [Compound 37-DHE, 3′,7-dihydroxy-isoflav-3-ene, reference compound] | – | – | – | – | – | – | – | less pronounced | less pronounced
